Source: ChEMBL document CHEMBL1909046, “DrugMatrix in vitro pharmacology data”
pIC50, pKi: −log10 of the molar value.

Assays:
Mu-type opioid receptor = Mu-type opioid receptor (Homo sapiens, UniProt P35372); experiment: DRUGMATRIX: Opiate mu (OP3, MOP) radioligand binding (ligand: [3H] Diprenorphine); type: cell membranes, CHO-K1, Membrane; conditions: cho-k1; Not Active = under 50% inhibition at 10 µM
Substance-K receptor = target: T1, Substance-K receptor (Homo sapiens, UniProt P21452); type: cell membranes, CHO, Membrane; conditions: for IC50: cho; as to all read-outs here: in other assays of this panel Not Active means under 50% inhibition at 10 µM
T1 sequence (P21452 whole entry): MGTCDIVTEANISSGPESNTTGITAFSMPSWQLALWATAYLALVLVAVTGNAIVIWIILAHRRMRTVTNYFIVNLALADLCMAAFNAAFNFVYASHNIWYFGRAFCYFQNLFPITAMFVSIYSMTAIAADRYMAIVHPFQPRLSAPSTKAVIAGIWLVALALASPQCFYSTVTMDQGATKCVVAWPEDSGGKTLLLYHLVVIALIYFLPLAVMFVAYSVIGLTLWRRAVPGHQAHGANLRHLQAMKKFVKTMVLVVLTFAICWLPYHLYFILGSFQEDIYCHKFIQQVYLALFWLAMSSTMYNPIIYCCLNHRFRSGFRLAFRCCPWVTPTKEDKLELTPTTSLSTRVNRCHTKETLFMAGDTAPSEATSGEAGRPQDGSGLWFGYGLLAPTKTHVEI

Leukotriene C4 synthase = target: T2, Leukotriene C4 synthase (Cavia porcellus, UniProt A6XA80); type: tissue-based, Lung;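 also: enzyme inhibition assay of leukotriene C4 synthase, using LTA4 as the substrate; in other assays of this panel Not Active means under 50% inhibition at 10 µM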
T2 sequence (A6XA80 whole entry): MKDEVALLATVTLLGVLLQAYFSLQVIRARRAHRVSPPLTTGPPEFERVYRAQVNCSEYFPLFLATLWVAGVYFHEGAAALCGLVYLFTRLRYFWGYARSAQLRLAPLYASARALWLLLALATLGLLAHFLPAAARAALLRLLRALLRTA

[1] = DRUGMATRIX: Sigma2 radioligand binding (ligand: [3H] Ifenprodil); type: cell membranes, Rattus norvegicus, Wistar, Brain, Membrane; conditions: Not Active = under 50% inhibition at 10 µM
[2] = DRUGMATRIX: Interleukin IL-1 radioligand binding (ligand: [125I] interleukin 1beta); type: cell membranes, Membrane; conditions: nih3t3; Not Active = under 50% inhibition at 10 µM
[3] = DRUGMATRIX: Phosphodiesterase PDE4 enzyme inhibition (substrate: [3H]cAMP + cAMP); conditions: u-937; Not Active = under 50% inhibition at 10 µM
[4] = DRUGMATRIX: Glutamate, NMDA, Agonism radioligand binding (ligand: [3H] CGP-39653); type: cell membranes, Rattus norvegicus, Wistar, Cerebral cortex, Membrane; conditions: Not Active = under 50% inhibition at 10 µM

Chain of Mu-type opioid receptor (P35372 whole entry): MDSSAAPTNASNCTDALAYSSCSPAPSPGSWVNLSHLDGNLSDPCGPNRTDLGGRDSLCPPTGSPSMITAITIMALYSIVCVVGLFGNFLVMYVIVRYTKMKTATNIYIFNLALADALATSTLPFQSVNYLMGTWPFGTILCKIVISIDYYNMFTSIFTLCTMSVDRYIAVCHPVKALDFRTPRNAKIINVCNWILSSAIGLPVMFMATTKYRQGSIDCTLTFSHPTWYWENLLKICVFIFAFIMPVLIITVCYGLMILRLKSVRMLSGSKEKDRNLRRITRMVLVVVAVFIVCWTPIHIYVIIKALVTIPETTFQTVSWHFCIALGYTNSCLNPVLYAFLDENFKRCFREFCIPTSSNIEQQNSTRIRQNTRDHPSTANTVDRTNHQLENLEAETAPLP

| Compound | IC50 (Mu-type opioid receptor) | pIC50 (Substance-K receptor; read-out: IC50) | pKi (Substance-K receptor; read-out: Ki) | IC50 (Leukotriene C4 synthase) | IC50 [1] | Ki [1] | IC50 [2] | Ki [2] | IC50 [3] | Ki [3] | IC50 [4] | Ki [4] | IC50 (Substance-K receptor) | pIC50 ([1]; read-out: IC50) | pKi ([1]; read-out: Ki) |
| --- | --- | --- | --- | --- | --- | --- | --- | --- | --- | --- | --- | --- | --- | --- | --- |
| CC(=O)O[C@@]12CO[C@@H]1C[C@H](O)[C@@]1(C)C(=O)[C@H](O)C3=C(C)[C@@H](OC(=O)[C@H](O)[C@@H](NC(=O)OC(C)(C)C)c4ccccc4)C[C@@](O)([C@@H](OC(=O)c4ccccc4)[C@H]21)C3(C)C.O.O.O [DOCETAXEL] | Not Active | 5.81 | 6.28 | Not Active | Not Active | Not Active | Not Active | Not Active | Not Active | Not Active | Not Active | Not Active | – | – | – |
| COc1cc2nc(N3CCN(C(=O)C4COc5ccccc5O4)CC3)nc(N)c2cc1OC (centres undefined) [DOXAZOSIN] | Not Active | – | – | Not Active | Not Active | Not Active | Not Active | Not Active | Not Active | Not Active | Not Active | Not Active | Not Active | – | – |
| C[C@H]1c2cccc(O)c2C(=O)C2=C(O)[C@]3(O)C(=O)C(C(N)=O)=C(O)[C@@H](N(C)C)[C@@H]3[C@@H](O)[C@@H]21.O [DOXYCYCLINE] | Not Active | – | – | Not Active | Not Active | Not Active | Not Active | Not Active | Not Active | Not Active | Not Active | Not Active | Not Active | – | – |
| O=C(CCCN1CC=C(n2c(=O)[nH]c3ccccc32)CC1)c1ccc(F)cc1 [DROPERIDOL] | Not Active | – | – | Not Active | – | – | Not Active | Not Active | Not Active | Not Active | Not Active | Not Active | Not Active | 5.48 | 5.69 |
| CC(C)[C@H]1C(=O)N2CCC[C@H]2[C@]2(O)O[C@](NC(=O)[C@@H]3C=C4c5cccc6[nH]cc(c56)C[C@H]4N(C)C3)(C(C)C)C(=O)N12 [ERGOCORNINE] | Not Active | – | – | Not Active | Not Active | Not Active | Not Active | Not Active | Not Active | Not Active | Not Active | Not Active | Not Active | – | – |
| C[C@]12CC[C@@H]3c4ccc(O)cc4CC[C@H]3[C@@H]1CCC2=O [ESTRONE] | Not Active | – | – | Not Active | Not Active | Not Active | Not Active | Not Active | Not Active | Not Active | Not Active | Not Active | Not Active | – | – |
| OC(Cn1cncn1)(Cn1cncn1)c1ccc(F)cc1F [FLUCONAZOLE] | Not Active | – | – | Not Active | Not Active | Not Active | Not Active | Not Active | Not Active | Not Active | Not Active | Not Active | Not Active | – | – |
| CC(C)C(=O)Nc1ccc([N+](=O)[O-])c(C(F)(F)F)c1 [FLUTAMIDE] | Not Active | – | – | Not Active | Not Active | Not Active | Not Active | Not Active | Not Active | Not Active | Not Active | Not Active | Not Active | – | – |
| N=C(N)NCCN1CCCCCCC1 [GUANETHIDINE] | Not Active | – | – | Not Active | Not Active | Not Active | Not Active | Not Active | Not Active | Not Active | Not Active | Not Active | Not Active | – | – |
| CC1(C)O[C@@H]2C[C@H]3[C@@H]4CCC5=CC(=O)CC[C@]5(C)[C@@]4(F)[C@@H](O)C[C@]3(C)[C@]2(C(=O)CCl)O1 [HALCINONIDE] | Not Active | – | – | Not Active | Not Active | Not Active | Not Active | Not Active | Not Active | Not Active | Not Active | Not Active | Not Active | – | – |
| O=c1[nH]c(=O)n([C@H]2C[C@H](O)[C@@H](CO)O2)cc1I [IDOXURIDINE] | Not Active | – | – | Not Active | Not Active | Not Active | Not Active | Not Active | Not Active | Not Active | Not Active | Not Active | Not Active | – | – |
| CC1Cc2ccccc2N1NC(=O)c1ccc(Cl)c(S(N)(=O)=O)c1 (centres undefined) [INDAPAMIDE] | Not Active | – | – | Not Active | Not Active | Not Active | Not Active | Not Active | Not Active | Not Active | Not Active | Not Active | Not Active | – | – |
| Nc1nc(N)nc(-c2cc(Cl)ccc2Cl)n1.O=C(O)/C=C\C(=O)O [IRSOGLADINE MALEATE] | Not Active | – | – | Not Active | Not Active | Not Active | Not Active | Not Active | Not Active | Not Active | Not Active | Not Active | Not Active | – | – |
| CCC(C)n1ncn(-c2ccc(N3CCN(c4ccc(OCC5COC(Cn6cncn6)(c6ccc(Cl)cc6Cl)O5)cc4)CC3)cc2)c1=O (centres undefined) [ITRACONAZOLE] | Not Active | – | – | Not Active | Not Active | Not Active | Not Active | Not Active | Not Active | Not Active | Not Active | Not Active | Not Active | – | – |
| CCCCN1CCCC[C@H]1C(=O)Nc1c(C)cccc1C [LEVOBUPIVACAINE] | Not Active | – | – | Not Active | Not Active | Not Active | Not Active | Not Active | Not Active | Not Active | Not Active | Not Active | Not Active | – | – |
| CCCCc1nc(Cl)c(CO)n1Cc1ccc(-c2ccccc2-c2nnn[nH]2)cc1 [LOSARTAN] | Not Active | – | – | Not Active | Not Active | Not Active | Not Active | Not Active | Not Active | Not Active | Not Active | Not Active | Not Active | – | – |
| Sc1ncnc2nc[nH]c12 [MERCAPTOPURINE ANHYDROUS] | Not Active | – | – | Not Active | Not Active | Not Active | Not Active | Not Active | Not Active | Not Active | Not Active | Not Active | Not Active | – | – |
| C[C@](N)(Cc1ccc(O)c(O)c1)C(=O)O [METHYLDOPA] | Not Active | – | – | Not Active | Not Active | Not Active | Not Active | Not Active | Not Active | Not Active | Not Active | Not Active | Not Active | – | – |
| C[C@]12CCC(=O)C=C1CC[C@@H]1[C@@H]2CC[C@@]2(C)[C@H]1CC[C@]2(C)O [METHYLTESTOSTERONE] | Not Active | – | – | Not Active | Not Active | Not Active | Not Active | Not Active | Not Active | Not Active | Not Active | Not Active | Not Active | – | – |
| Cc1ccccc1N1C(=O)c2cc(S(N)(=O)=O)c(Cl)cc2NC1C (centres undefined) [METOLAZONE] | Not Active | – | – | Not Active | Not Active | Not Active | Not Active | Not Active | Not Active | Not Active | Not Active | Not Active | Not Active | – | – |
| COCCc1ccc(OCC(O)CNC(C)C)cc1 (centres undefined) [METOPROLOL] | Not Active | – | – | Not Active | Not Active | Not Active | Not Active | Not Active | Not Active | Not Active | Not Active | Not Active | Not Active | – | – |
| CCn1cc(C(=O)O)c(=O)c2cc(F)c(N3CCNCC3)cc21 [NORFLOXACIN] | Not Active | – | – | Not Active | Not Active | Not Active | Not Active | Not Active | Not Active | Not Active | Not Active | Not Active | Not Active | – | – |
| NC1=NC(=O)C(c2ccccc2)O1 (centres undefined) [PEMOLINE] | Not Active | – | – | Not Active | Not Active | Not Active | Not Active | Not Active | Not Active | Not Active | Not Active | Not Active | Not Active | – | – |
